Here are results for nine compounds from patent US7601883B2, “Mammalian sour/acid taste and CSF receptor genes, polypeptides and assays” (The Regents of the University of California, priority 2005, dated 2009).

One experiment concerns PKD2L1-expressing TRCs. Kind of experiment: Tastant-induced chorda tympani nerve recordings, mice with DTA ablation of PKD2L1-expressing cells. The conditions noted are these: PKD2L1-DTA mice (PKD2L1-expressing cells genetically ablated); range of 5 orders magnitude of proton concentrations. The format is in vivo, mouse. The source says:
(§1) To validate this approach as a means of uncovering TRC function, we first generated mice where T1R2-regulatory sequences were used to target DTA expression^25. T1R2 is an essential subunit of the sweet receptor heterodimer (T1R2+3), and the selective ablation of these cells should generate animals with a specific loss of sweet taste^6,9,10,17. To investigate the taste responses of the genetically modified mice, we recorded tastant-induced action potentials from nerves innervating taste receptor cells of the tongue; this physiological assay monitors the activity of the taste system at the periphery, and provides an accurate and reliable measure of taste receptor cell function. […] Next, we engineered animals where the PKD2L1 gene was used to target Cre recombinase into PKD2L1-expressing cells; appropriate expression was confirmed by performing double labeling with Cre and probes specific to PKD2L1-cells, or by crossing them to GFP reporter lines^26. Mice expressing Cre in PKD2L1 cells were crossed to conditional DTA lines, and double-positive progeny were scrutinized both for the specificity and efficiency of killing, as well as the integrity of taste buds.
(§2) Lingual stimulation and recording procedures were performed as previously described^7,9. Neural signals were amplified (10,000×) with a Grass P511 AC amplifier (Astro-Med), digitized with a Digidata 1200B A/D converter (Axon Instruments), and integrated (r.m.s. voltage) with a time constant of 0.5 s. Taste stimuli were presented at a constant flow rate of 4 ml min^−1 for 20 s intervals interspersed by 2 min rinses with artificial saliva^7,9 between presentations. All data analyses used the integrated response over a 25 s period immediately after the application of the stimulus. The mean response to 60 mM AceK was used to normalize responses to each experimental series. Tastants used for nerve recordings were: 10 mM, 60 mM acesulfameK (AceK); 10 mM, 60 mM sodium saccharin (saccharin); 300 mM sucrose; 30 mM mono potassium glutamate+1 mM inosine mono phosphate (Glu); 30 mM L alanine+1 mM inosine mono phosphate (Ala); 10 mM quinine hydrochloride (Qui); 100 μM cycloheximide (Cyx); 10 mM 6-n-propyl 2-thiouracil (PROP); 50 mM, 100 mM sodium chloride (NaCl); 10 mM, 50 mM citric acid; 10 mM, 50 mM tartaric acid; 50 mM, 500 mM acetic acid; pH 2 hydrochloric acid (HCl); 10 mM citric acid pH 2, 4 and 6.

The subject of experiment [1] is taste receptor cells of the tongue. The experiment is described as follows: Tastant-induced chorda tympani nerve recordings, wild-type mice. Type of experiment: in vivo, mouse. The conditions noted are these: wild-type mice (WT); lingual stimulation; normalized to the response to 60 mM AceK.
Text: as §1, §2
Shown are integrated chorda tympani responses normalized to the response to 60 mM AceK; see herein for details on the ablated lines and concentrations of tastants. […] Wild type, black bars; PKD2L1-DTA, outline bars. The values are means±s.e.m. (n=5) of normalized chorda tympani responses. (c) Quantitation of acid responses of wild type (gray bars) and PKD2L1-DTA animals (outline bars). The values are means±s.e.m. (n=6).

Turning to `O=C(O)C(O)C(O)C(=O)O` (stereo not drawn) [tartaric acid], in the experiment on PKD2L1-expressing TRCs, the “nerve responses to acid tastants” value was “completely abolished”. For `Cl` [hydrochloric acid], in experiment [1], the “neural responses to tastant (integrated chorda tympani responses)” value (shortened to “neural responses to tastant”) is recorded as “robust neural responses”. In the experiment on PKD2L1-expressing TRCs, the “nerve responses to acid tastants” value was “completely abolished”. For `O=C(O)CC(O)(CC(=O)O)C(=O)O` [citric acid], in experiment [1], the “neural responses to tastant” value is reported as “robust neural responses”. In the experiment on PKD2L1-expressing TRCs, the “nerve responses to acid tastants” value was “completely abolished”. On to `O=C1NS(=O)(=O)c2ccccc21.[Na]` [saccharin, sodium saccharin], for which the “neural responses to tastant” value in experiment [1] is on record as “robust neural responses”. For the compound `CC(=O)O` [acetic acid], the “neural responses to tastant” value in experiment [1] was “robust neural responses”. Moreover, the “nerve responses to acid tastants” value in the experiment on PKD2L1-expressing TRCs was “completely abolished”. For the compound `C=C[C@H]1CN2CC[C@H]1C[C@H]2[C@H](O)c1ccnc2ccc(OC)cc12.Cl` [quinine, quinine hydrochloride], the “neural responses to tastant” value in experiment [1] is listed as “robust neural responses”.

Take `CC1=CC(=O)NS(=O)(=O)O1` [acesulfameK]: in experiment [1], the “neural responses to tastant” value is recorded as “robust neural responses”. On to `N[C@@H](CCC(=O)O)C(=O)[O-].[K+]` [glutamate, mono potassium glutamate], for which the “neural responses to tastant” value in experiment [1] is listed as “robust neural responses”. Consider `[Cl-].[Na+]` [NaCl, sodium chloride], for which, in experiment [1], the “neural responses to tastant” value is “robust neural responses”.
